Reference: patent US8685439B2, “Method for the treatment and prevention of eyelid swelling” (Aciex Therapeutics, Inc., priority 2006, dated 2014)

Tests used:
morning eyelid swelling [1] = test: Treatment of morning eyelid swelling (eyelid edema), eyelid volume by 3D scanner, treated eye vs untreated eye; type: in vivo, human; settings: for reduction of morning eyelid swelling (result in words): topical to one eye, other eye untreated, 3D scanner
Description: In this study, the efficacy of naphazoline 0.1% ophthalmic solution was evaluated for treatment for eyelid edema. The eyelid volume for 11 subjects participating in the study was recorded in the afternoon of Day 1 and again upon arrival to the clinic the following morning (Day 2). […] The natural progression of morning eyelid swelling, as measured using 3D scanning technology is depicted in FIG. 10. The increase ranged from 14 mm^3 to 659 mm^3. Subjects were then dosed with naphazoline 0.1% (vasoconstrictor) in the right eye and eyelid volume was assessed at 5, 10, 15, 30, and 120 minutes following treatment using a 3-D scanner. […] A summary of all the patient data is depicted if FIG. 3L.
In a preliminary study with a similar design to that described above, NaCl 5% ophthalmic solution was evaluated as a potential treatment for eyelid edema. […] Eyelid swelling was assessed using a 3-D scanner at 5, 10, 15, 20, 30, and 120 minutes post-treatment. […] In one subject, this reduction was pronounced and was present through the 120 minute assessment time point. In the remaining three patients, treatment was not effective.
A total of 6 subjects (male, between the ages of 25 and 29) were evaluated. At the start of the study, five (5) baseline scans were performed per subject and eye using a 3D scanner. The next day, subjects were asked to five (5) scans of each eye, identical to Visit 1, were then taken.
Subjects received the 2 drops (40 μl each) of the combination treatment, with one minute apart each drop in one eye and no treatment in the other eye. Five (5) scans of each eye were taken, identical to Visit 1, 20 minutes after second drop instillation. Subjects were asked to grade their eyelid swelling post treatment. Digital photos were also taken at baseline and at 20 minutes post treatment.

morning eyelid swelling [2] = test: as above; type: in vivo, human; settings: topical to one eye, other eye untreated

With `CNC[C@H](O)c1cccc(O)c1` [0.25% phenylephrine formulation, phenylephrine, reference compound] the “reduction of morning eyelid swelling (result in words)” value (“reduction of morning eyelid swelling” for short) (morning eyelid swelling [1]) was “did reduce morning eyelid swelling”.
For `[Cl-].[Na+]` [NaCl 5% ophthalmic solution, sodium chloride], the “patients in whom treatment was not effective” value (morning eyelid swelling [1]; 6 subjects) was “three”, the “mean change from baseline versus negative controls” value (morning eyelid swelling [1]; FIG. 4G) was “numerically superior to negative controls, though the differences were not statistically significant” and the “subjects with pronounced reduction in eyelid swelling” value (morning eyelid swelling [1]; present through the 120 minute assessment time point, 6 subjects) was “one”. The “patients with a reduction in eyelid swelling” value (morning eyelid swelling [1]; through 15 minutes post-instillation, 6 subjects) was “Three”, the “reduction of morning eyelid swelling” value (morning eyelid swelling [1]) was “caused a reduction of eyelid swelling in several patients” and the “reduction of morning eyelid swelling” value (morning eyelid swelling [2]) was “some efficacy”.
With `OC[C@@H](O)[C@@H](O)[C@H](O)[C@H](O)CO` [mannitol 12.5% solution, mannitol] the “reduction of morning eyelid swelling” value (morning eyelid swelling [1]) was “did reduce morning eyelid swelling”.
`c1ccc2c(CC3=NCCN3)cccc2c1` [naphazoline 0.1%, naphazoline, reference compound] was tested, and the “reduction of morning eyelid swelling” value (morning eyelid swelling [1]) was “demonstrated efficacy”, the “subjects with greater decrease in eyelid volume in treatment eye than non-treatment eye” value (morning eyelid swelling [1]; up to the 30 minute timepoint) was 9 out of 11 and the “subjects with greater decrease in eyelid volume in treatment eye than non-treatment eye” value (morning eyelid swelling [1]; up to the 120 minute timepoint) was 7 out of 11. For the same molecule, the “reduction of morning eyelid swelling” value (morning eyelid swelling [2]; listed as naphazoline 0.5% solution) was “caused a reduction of eyelid swelling in most subjects”.
